In BindingDB's records for doi:10.1016/s0960-894x(01)00405-x (Glaxosmithkline, 2001):

biological target: T1, Enoyl-[acyl-carrier-protein] reductase [NADPH] FabI (Staphylococcus aureus (strain MRSA252), UniProt Q6GI75); test: Enzyme Inhibition Assay; settings: pH 6.5; 30 °C
T1 sequence (Q6GI75 whole entry): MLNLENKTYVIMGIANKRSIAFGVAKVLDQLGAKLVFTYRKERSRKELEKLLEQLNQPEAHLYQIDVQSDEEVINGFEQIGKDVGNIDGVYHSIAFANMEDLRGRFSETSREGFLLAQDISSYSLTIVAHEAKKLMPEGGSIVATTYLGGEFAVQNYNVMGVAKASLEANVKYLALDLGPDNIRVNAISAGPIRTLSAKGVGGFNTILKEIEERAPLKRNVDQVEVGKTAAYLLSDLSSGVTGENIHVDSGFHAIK
Protocol: Assays were carried out in half-area, 96-well microtiter plates. Compounds were evaluated in assay mixtures containing components specific for each enzyme. Inhibitors were varied over the range 0.01-10 uM. The consumption of NAD(P)H was monitored for 20 min at 30 °C by following the change in absorbance at 340 nm. IC50 values were estimated from a fit of the initial velocities to a standard equation.

Structure (SMILES) | IC50 [µM]
COC(=O)CCCCn1c2c(c3ccccc31)CCN(C(=O)c1ccc(O)cc1)C2 [methyl 5-{2-[(4-hydroxyphenyl)carbonyl]-1H,2H,3H,4H,9H-pyrido[3,4-b]indol-9-yl}pentanoate] | 4.6
COC(=O)Cn1c2c(c3ccccc31)CCN(C(=O)c1ccc(O)cc1)C2 [methyl 2-{2-[(4-hydroxyphenyl)carbonyl]-1H,2H,3H,4H,9H-pyrido[3,4-b]indol-9-yl}acetate] | 9.8
O=C(c1ccc(O)cc1)N1CCc2c([nH]c3ccccc23)C1 [4-{1H,2H,3H,4H,9H-pyrido[3,4-b]indol-2-ylcarbonyl}phenol] | 1.4
O=C(c1ccc(O)cc1)N1CCc2c(n(Cc3cccc(O)c3)c3ccccc23)C1 [4-({9-[(3-hydroxyphenyl)methyl]-1H,2H,3H,4H,9H-pyrido[3,4-b]indol-2-yl}carbonyl)phenol] | 0.42
O=C(c1ccc(O)cc1)N1CCc2c(n(Cc3ccccc3)c3ccccc23)C1 [4-({9-benzyl-1H,2H,3H,4H,9H-pyrido[3,4-b]indol-2-yl}carbonyl)phenol] | 1.3
O=C(c1ccccc1)N1CCc2c([nH]c3ccccc23)C1 [2-benzoyl-1H,2H,3H,4H,9H-pyrido[3,4-b]indole] | 2.7
CN1Cc2cc(C(=O)N3CCc4c([nH]c5ccccc45)C3)ccc2NC(CC(=O)O)C1=O (stereo not drawn) [2-(4-methyl-3-oxo-7-{1H,2H,3H,4H,9H-pyrido[3,4-b]indol-2-ylcarbonyl}-2,3,4,5-tetrahydro-1H-1,4-benzodiazepin-2-yl)acetic acid] | 7.8
Cn1c2c(c3ccccc31)CCN(C(=O)c1ccc(O)cc1)C2 [4-({9-methyl-1H,2H,3H,4H,9H-pyrido[3,4-b]indol-2-yl}carbonyl)phenol] | 1.4
